Data reported in ChEMBL document CHEMBL4613209, “Quinolone hybrids and their anti-cancer activities: An overview” (Eur J Med Chem, 2019).
In brackets after ≈: the same amount, converted by molar mass. One block for each molecule: values may come before it.

Assays:
PC-3 = assay: Cytotoxicity against human PC3 cells assessed as reduction in cell viability after 48 hrs by SRB assay; assay type: functional, cell-based; conditions: PC-3, 48 h
DU-145 [1] = assay: Cytotoxicity against human DU145 cells assessed as reduction in cell viability after 48 hrs by SRB assay; assay type: functional, cell-based; conditions: DU-145, 48 h
SMMC-7721 [2] = assay: Cytotoxicity against human SMMC7721 cells assessed as reduction in cell viability by MTT assay; assay type: functional, cell-based
KB = assay: Cytotoxicity against human KB cells assessed as reduction in cell viability; assay type: functional; conditions: read-out: TD50 (the source's name)
L1210 [3] = assay: Cytotoxicity against mouse L1210 cells assessed as reduction in cell viability; assay type: functional, cell-based
[4] = Cytotoxicity against human SW403 cells assessed as reduction in cell viability; assay type: functional; conditions: SW-403, read-out: TD50 (the source's name)
MCF7 [5] = assay: Cytotoxicity against human MCF7 cells assessed as reduction in cell viability; assay type: functional, cell-based; conditions: read-out: TD50 (the source's name)
OVCAR-3 = assay: Cytotoxicity against human OVCAR3 cells assessed as reduction in cell viability; assay type: functional; conditions: read-out: TD50 (the source's name)
HL-60 [6] = assay: Cytotoxicity against human HL60 cells assessed as reduction in cell viability; assay type: functional, cell-based
HCT-116 [7] = assay: Cytotoxicity against human HCT116 cells assessed as reduction in cell viability by SRB assay; assay type: functional, cell-based
L1210 [8] = assay: Cytotoxicity against mouse L1210 cells assessed as reduction in cell viability by MTT assay; assay type: functional, cell-based
HL-60 [9] = assay: Cytotoxicity against human HL60 cells assessed as reduction in cell viability by MTT assay; assay type: functional, cell-based
Hep 3B2 [10] = assay: Cytotoxicity against human Hep3B cells assessed as reduction in cell viability by MTT assay; assay type: functional, cell-based
CAPAN-1 [11] = assay: Cytotoxicity against human Capan1 cells assessed as reduction in cell viability by MTT assay; assay type: functional, cell-based
CAPAN-1 [12] = assay: Cytotoxicity against human Capan1 cells assessed as reduction in cell viability; assay type: functional, cell-based
Hep 3B2 [13] = assay: Cytotoxicity against human Hep3B cells assessed as reduction in cell viability; assay type: functional, cell-based
HCT-8 = assay: Antiproliferative activity against human HCT8 cells after 48 hrs by MTT assay; assay type: functional, cell-based; conditions: HCT-8, 48 h
SMMC-7721 [14] = assay: Cytotoxicity against human SMMC7721 cells assessed as reduction in cell viability; assay type: functional, cell-based
SMMC-7721 [15] = assay: Antiproliferative activity against human SMMC7721 cells after 24 to 72 hrs by MTT assay; assay type: functional, cell-based
L1210 [16] = assay: Antiproliferative activity against mouse L1210 cells after 24 to 72 hrs by MTT assay; assay type: functional, cell-based
HL-60 [17] = assay: Antiproliferative activity against human HL60 cells after 24 to 72 hrs by MTT assay; assay type: functional, cell-based
SMMC-7721 [18] = assay: Antiproliferative activity against human SMMC7721 cells by MTT assay; assay type: functional, cell-based
L1210 [19] = assay: Antiproliferative activity against mouse L1210 cells by MTT assay; assay type: functional, cell-based
[20] = Toxicity in mouse xenografted with human CX-1 cells; conditions: in vivo
[21] = Toxicity in mouse xenografted with human MB-9812 cells
PANC-1 [22] = assay: Potency index, ratio of IC50 for etoposide to IC50 for test compound for anticancer activity against human PANC1 cells after 48 hrs by SRB assay; assay type: functional
A549 [23] = assay: Potency index, ratio of IC50 for etoposide to IC50 for test compound for anticancer activity against human A549 cells after 48 hrs by SRB assay; assay type: functional
HCT-116 [24] = assay: Potency index, ratio of IC50 for etoposide to IC50 for test compound for anticancer activity against human HCT116 cells after 48 hrs by SRB assay; assay type: functional
MCF7-DOX [25] = assay: Anticancer activity against human MCF7/Dox cells after 48 hrs by SRB assay; assay type: functional, cell-based
HL-60 [26] = assay: Potency index, ratio of IC50 for etoposide to IC50 for test compound for anticancer activity against human HL60 cells after 48 hrs by SRB assay; assay type: functional
MCF7 [27] = assay: Anticancer activity against human MCF7 cells after 48 hrs by SRB assay; assay type: functional, cell-based; conditions: MCF7, 48 h
SK-OV-3 [28] = assay: Anticancer activity against human SKOV3 cells after 48 hrs by SRB assay; assay type: functional, cell-based; conditions: SK-OV-3, 48 h
PANC-1 [29] = assay: Anticancer activity against human PANC1 cells after 48 hrs by SRB assay; assay type: functional, cell-based; conditions: PANC-1, 48 h
HeLa [30] = assay: Anticancer activity against human HeLa cells after 48 hrs by SRB assay; assay type: functional, cell-based
HL-60 [31] = assay: Anticancer activity against human HL60 cells after 48 hrs by SRB assay; assay type: functional, cell-based; conditions: HL-60, 48 h
HepG2 = assay: Anticancer activity against human HepG2 cells after 48 hrs by SRB assay; assay type: functional, cell-based; conditions: HepG2, 48 h
DU-145 [32] = assay: Anticancer activity against human DU145 cells after 48 hrs by SRB assay; assay type: functional, cell-based; conditions: DU-145, 48 h
A549 [33] = assay: Anticancer activity against human A549 cells after 48 hrs by SRB assay; assay type: functional, cell-based; conditions: A549, 48 h
HCT-116 [34] = assay: Anticancer activity against human HCT116 cells after 48 hrs by SRB assay; assay type: functional, cell-based; conditions: HCT-116, 48 h
HeLa [35] = assay: Potency index, ratio of IC50 for etoposide to IC50 for test compound for anticancer activity against human HeLa cells after 48 hrs by SRB assay; assay type: functional
DU-145 [36] = assay: Potency index, ratio of IC50 for etoposide to IC50 for test compound for anticancer activity against human DU145 cells after 48 hrs by SRB assay; assay type: functional
SK-OV-3 [37] = assay: Potency index, ratio of IC50 for etoposide to IC50 for test compound for anticancer activity against human SKOV3 cells after 48 hrs by SRB assay; assay type: functional
MCF7 [38] = assay: Potency index, ratio of IC50 for etoposide to IC50 for test compound for anticancer activity against human MCF7 cells after 48 hrs by SRB assay; assay type: functional
MCF7-DOX [39] = assay: Potency index, ratio of IC50 for etoposide to IC50 for test compound for anticancer activity against human MCF7/Dox cells after 48 hrs by SRB assay; assay type: functional

Structure (SMILES): COc1cccc2c1C(=O)c1c(O)c3c(c(O)c1C2=O)C[C@@](O)(C(=O)CO)C[C@@H]3O[C@H]1C[C@H](N)[C@H](O)[C@H](C)O1 [DOXORUBICIN]
- IC50 (PC-3): 0.4 µg/mL (≈ 0.736 µM)
- IC50 (DU-145 [1]): 0.4 µg/mL (≈ 0.736 µM)
- IC50 (SMMC-7721 [2]): 1.2 to 2.6 µM
- CC50 (KB): 0.014 to 0.098 µg/mL (≈ 0.0258 to 0.18 µM)
- IC50 (L1210 [3]): 1.6 to 3 µM
- CC50 [4]: 0.014 to 0.098 µg/mL (≈ 0.0258 to 0.18 µM)
- CC50 (MCF7 [5]): 0.014 to 0.098 µg/mL (≈ 0.0258 to 0.18 µM)
- CC50 (OVCAR-3): 0.014 to 0.098 µg/mL (≈ 0.0258 to 0.18 µM)
- IC50 (HL-60 [6]): 3.5 µM
- IC50 (HCT-116 [7]): 0.0088 µM
- IC50 (L1210 [8]): 1.2 to 2.6 µM
- IC50 (HL-60 [9]): 1.2 to 2.6 µM
- IC50 (Hep 3B2 [10]): 1.8 to 3.5 µM
- IC50 (CAPAN-1 [11]): 1.8 to 3.5 µM
- IC50 (CAPAN-1 [12]): 1.7 µM
- IC50 (Hep 3B2 [13]): 2.6 µM
- IC50 (HCT-8): 7.2 µM
- IC50 (SMMC-7721 [14]): 1.6 to 3 µM
- IC50 (SMMC-7721 [15]): 2.5 µM
- IC50 (L1210 [16]): 1.7 µM
- IC50 (HL-60 [17]): 3.6 µM
- IC50 (SMMC-7721 [18]): 2.3 µM
- IC50 (L1210 [19]): 4.2 µM
- LD50 [20]: 11 mg/kg
- LD50 [21]: 11 mg/kg

- IC50 (MCF7-DOX [25]): 0.5 to 6.25 µM
- IC50 (MCF7 [27]): 0.5 to 6.25 µM
- IC50 (SK-OV-3 [28]): 0.5 to 6.25 µM
- IC50 (PANC-1 [29]): 0.5 to 6.25 µM
- IC50 (HeLa [30]): 0.5 to 6.25 µM
- IC50 (HL-60 [31]): 0.5 to 6.25 µM
- IC50 (HepG2): 0.5 to 6.25 µM
- IC50 (DU-145 [32]): 0.5 to 6.25 µM
- IC50 (A549 [33]): 0.5 to 6.25 µM
- IC50 (HCT-116 [34]): 0.5 to 6.25 µM
Structure (SMILES): CC1(CN)CN(c2ccc3c(=O)c(C(=O)O)cn(-c4nccs4)c3n2)C/C1=N/OCc1ccccc1 (centres undefined)
- Ratio IC50 (PANC-1 [22]): >=1.3 - 100
- Ratio IC50 (A549 [23]): >=1.3 - 100
- Ratio IC50 (HCT-116 [24]): >=1.3 - 100
- Ratio IC50 (HL-60 [26]): >=1.3 - 100
- Ratio IC50 (HeLa [35]): >=1.3 - 100
- Ratio IC50 (DU-145 [36]): >=1.3 - 100
- Ratio IC50 (SK-OV-3 [37]): >=1.3 - 100
- Ratio IC50 (MCF7 [38]): >=1.3 - 100
- Ratio IC50 (MCF7-DOX [39]): >=1.3 - 100
